Data taken from patent US20230248832A1, “Small Molecule Ligand-Drug Conjugates for Targeted Cancer Therapy” (Emory University, priority 2008, published 2023).
pIC50: −log10 of the molar value. “Also recorded” adds a separate entry of the source. Read-outs that look alike come from different tables or passages of the source.

Key:
[1] = test system: cancer; assay: In vivo cancer targeting of IR783 derivatives
[2] = test system: C4-2 human prostate cancer cells implanted subcutaneously; assay: Subcutaneous C4-2 prostate tumor model; format: in vivo, athymic nude mice; conditions: for incidence of tumor formation: SQ C4-2, i.p., IR783 and IR-MUT1 5 mg/kg daily, taxotere 15 mg/kg twice per week; for apoptosis in SQ C4-2 tumors (histopathology, H/E stain): SQ C4-2 tumors in mice
Description: 1 million C4-2 human prostate cancer cells were implanted subcutaneously into the back of the 4 to 6 week old athymic nude mice. […] Tumor diameters were measured with a caliper, and tumor volume in mm^3 is calculated by the formula: Volume=(width)^2×length/2.
Serum PSA levels were used to monitor tumor growth in a C4-2 SQ tumor model. Mice were checked for serum PSA levels before implantation and at 35 and 45 days after tumor cell implantation.
(§1) C4-2 prostate cancer cells were subcutaneously implanted into the back of the 4 to 6 week old athymic nude mice. […] The serum prostate specific antigen (PSA) levels, which indicating the presence of prostate cancers, were monitored during the tumor reduction study.

[3] = test system: P69 normal human prostate epithelial cells; assay: MTT cytotoxicity assay, P69; format: cell-based; conditions: Epithelial cell, 48 hours
Description: (§2) C4-2 (FIG. 13A) and P69 (FIG. 13B) cells were plated in 96 well plates (3,000/well). […] (FIG. 13C) SN12C and (FIG. 13D) HEK293 cells were plated in 96 well plates (3,000/well).

[4] = test system: HEK293 human embryonic kidney cells; assay: MTT cytotoxicity assay, HEK293; format: cell-based; conditions: 48 hrs
Description: as §2

[5] = test system: C4-2 human prostate cancer cells implanted intraosseously into the tibia; assay: Intratibial C4-2 prostate tumor model; format: in vivo, athymic nude mice; conditions: for tumors growing from tibia (incidence): i.p. from 30 days after implantation
Description: 1 million C4-2 human prostate cancer cells were implanted intraosseously into the tibia of the 4 to 6 week old athymic nude mice. […] The animals were observed daily and body weights were measured daily. Tumor diameters are measured with calipers, and tumor volume in mm^3 is calculated by the formula: Volume=(width)^2×length×0.5236.
In another tumor model, C4-2 cancer cells were administered intraosseously into the tibia of the 4 to 6 week old athymic nude mice.

[6] = Body weight during treatment of C4-2 tumor-bearing mice; format: in vivo, athymic nude mice; conditions: i.p.
Description: During treatment, the body weights were obtained daily.
as §1

[7] = test system: SN12C human renal cancer cells; assay: MTT cytotoxicity assay, SN12C; format: cell-based; conditions: 48 hrs
Description: as §2

[8] = test system: C4-2 human prostate cancer cells; assay: MTT cytotoxicity assay, C4-2; format: cell-based; conditions: C4-2 cells, 48 hrs
Description: as §2

[9] = test system: cancer; assay: In vitro cancer targeting of IR783 derivatives; format: cell-based
[10] = test system: cancer cells; assay: Toxicity to cancer cells at day 2 (FIG. 6); format: cell-based; conditions: evaluated at day 2; compared with free nonconjugated drug taxotere
Description: IR-783 (dye molecule only) is nontoxic. […] This is expected since IR783 conjugated to docetaxel or paclitaxel, accumulation in cells require enzymatic activation, which releases the active taxotere or taxol component inside of the cells to exert cytotoxicity against the growth of cancer cells.

CN1/C(=C/C=C2\CCCC(/C=C/C3=[N+](C)c4ccc5ccccc5c4C3(C)C)=C2Cl)C(C)(C)C2=c3ccccc3=CCC21.[I-] (stereo not shown)
In vivo targeting [1]: poor

CC(=O)O[C@@]12CO[C@@H]1C[C@H](O)[C@@]1(C)C(=O)[C@H](O)C3=C(C)[C@@H](OC(=O)[C@H](O)[C@@H](NC(=O)OC(C)(C)C)c4ccccc4)C[C@@](O)([C@@H](OC(=O)c4ccccc4)[C@H]21)C3(C)C [taxotere, docetaxel, reference compound]
serum PSA levels ([2]; 35 and 45 days after tumor cell implantation, compared with IR-783 (control) group): greatly depressed; also recorded: dramatically lower; also recorded: significantly lower | incidence of tumor formation [2]: no tumor growing; also recorded: no tumor formed | pIC50 [3]: ~8.00 | pIC50 [4]: ~6.22 | bone lesions on X-ray [5]: no lesion | tumors growing from tibia (incidence) [5]: 0/5 | effect on body weight [6]: noticeably lower | pIC50 [7]: 7.92 | pIC50 [8]: 8.00

CC1(C)C(/C=C/C2=C(Cl)C(=C/C=C3/N(CCCCCC(=O)O)c4ccccc4C3(C)C)/CCC2)=[N+](CCCCCC(=O)O)c2ccccc21.[Na+].[Na+]
In vivo targeting [1]: excellent | In vitro targeting [9]: excellent

CN1/C(=C/C=C(Cl)/C=C/C2=[N+](C)c3ccccc3C2(C)C)C(C)(C)c2ccccc21.[I-]
In vitro targeting [9]: excellent

CC1(C)C(/C=C/C2=C(Cl)C(=C/C=C3/N(CCO)c4ccccc4C3(C)C)/CCC2)=[N+](CCO)c2ccccc21
In vivo targeting [1]: low intensity | In vitro targeting [9]: excellent

CC1(C)C(/C=C/C2=C(Cl)C(=C/C=C3/N(CCCCO)c4ccccc4C3(C)C)/CCC2)=[N+](CCCCO)c2ccccc21
In vivo targeting [1]: poor | In vitro targeting [9]: poor

O=C(O)CCCCCn1/c(=C/C=C2\CCCC(/C=C/C3=[N+](CCCCCC(=O)O)c4cccc5cccc3c45)=C2Cl)c2cccc3cccc1c32.[Na+].[Na+]
In vivo targeting [1]: poor | In vitro targeting [9]: poor

I.O=C1C(/C=c2\c3cccc4cccc(c43)n2CCCc2ccccc2)=C([O-])C/1=C/C1=[N+](CCCc2ccccc2)c2cccc3cccc1c23
In vivo targeting [1]: poor

COc1ccc2c(c1)C(C)(C)C(/C=C/C=C/C=C1/N(C)c3ccc(OC)cc3C1(C)C)=[N+]2C.[I-]
In vitro targeting [9]: excellent

CN1/C(=C/C=C(Cl)/C=C/C2=[N+](C)c3ccc4ccccc4c3C2(C)C)C(C)(C)c2c1ccc1ccccc21
In vitro targeting [9]: excellent

CCn1/c(=C/C=C/C2=[N+](CC)c3cccc4cccc2c34)c2cccc3cccc1c32
In vivo targeting [1]: poor | In vitro targeting [9]: good

CC1(C)C(=CC=C2CCCC(C=CC3=[N+](CCCCS(=O)(=O)[O-])c4ccccc4C3(C)C)=C2Cl)N(CCCCS(=O)(=O)[O-])c2ccccc21.[Na+] [IR-783, reference compound]
incidence of tumor formation [2]: 9/20 | apoptosis in SQ C4-2 tumors (histopathology, H/E stain) [2]: negligible | apoptosis in SQ C4-2 tumors (histopathology, H/E stain) ([2]; listed as IR783): not affected | bone lesions on X-ray [5]: both the osteolytic and osteoblastic lesions were apparently observed | average volume of tumor ([5]; IR-783 group versus IR-MUT1 group): significantly higher | tumors growing from tibia (incidence) [5]: 4/5 | bone lesions on X-ray ([5]; listed as IR783): severe osteolytic lesions | effect on body weight [6]: no body weight loss | toxicity to cancer cells [10]: nontoxic

CC1(C)C(/C=C/C2=C(Cl)C(=C/C=C3/N(CCCCC(=O)O)c4ccccc4C3(C)C)/CCC2)=[N+](CCCCC(=O)[O-])c2ccccc21
In vivo targeting [1]: excellent | In vitro targeting [9]: excellent

CC1(C)C(/C=C/C2=C(Cl)C(=C/C=C3/N(CCCc4ccccc4)c4ccccc4C3(C)C)/CCC2)=[N+](CCCc2ccccc2)c2ccccc21
In vivo targeting [1]: poor | In vitro targeting [9]: excellent
